In the NIST ThermoML archive (doi:10.1021/je4003256):
Numbers after ± are expanded uncertainties.

Conditions: 101.33 kPa, Liquid; for speed of sound: Pulse-echo method; for mass density: Vibrating tube method

Row | Structure (SMILES) | speed of sound (293.15 K) [m/s] | mass density (293.15 K) [kg/m3] | speed of sound (298.15 K) [m/s] | mass density (298.15 K) [kg/m3] | speed of sound (303.15 K) [m/s] | mass density (303.15 K) [kg/m3] | speed of sound (308.15 K) [m/s] | mass density (308.15 K) [kg/m3] | speed of sound (318.15 K) [m/s] | mass density (318.15 K) [kg/m3] | speed of sound (323.15 K) [m/s] | mass density (323.15 K) [kg/m3] | speed of sound (328.15 K) [m/s] | mass density (328.15 K) [kg/m3] | speed of sound (333.15 K) [m/s] | mass density (333.15 K) [kg/m3] | speed of sound (338.15 K) [m/s] | mass density (338.15 K) [kg/m3] | speed of sound (343.15 K) [m/s] | mass density (343.15 K) [kg/m3] | also measured
1 | COc1ccccc1O [2-methoxyphenol] | 1548.3 ± 1.3 | 1133.81 ± 0.34 | 1528.7 ± 1.3 | 1128.96 ± 0.34 | 1509.3 ± 1.3 | 1124.11 ± 0.33 | 1490 ± 1.3 | 1119.25 ± 0.33 | 1451.5 ± 1.3 | 1109.51 ± 0.32 | 1432.4 ± 1.3 | 1104.63 ± 0.32 | 1413.5 ± 1.3 | 1099.74 ± 0.31 | 1394.6 ± 1.2 | 1094.84 ± 0.31 | 1375.8 ± 1.2 | 1089.94 ± 0.3 | 1357.1 ± 1.2 | 1085.02 ± 0.3 | speed of sound (288.15 K): 1567.6 ± 1.3 m/s; mass density (288.15 K): 1138.64 ± 0.34 kg/m3; speed of sound (313.15 K): 1470.7 ± 1.3 m/s; mass density (313.15 K): 1114.38 ± 0.32 kg/m3
2 | Cc1ccc(O)cc1 [4-methylphenol] | 1502.9 ± 2.1 | 1034.09 ± 0.91 | 1487.2 ± 2.1 | 1030.25 ± 0.9 | 1471.4 ± 2.1 | 1026.39 ± 0.89 | 1455.6 ± 2.1 | 1022.5 ± 0.88 | 1424.3 ± 2.1 | 1014.66 ± 0.87 | 1408.7 ± 2.1 | 1010.7 ± 0.86 | 1393 ± 2.1 | 1006.72 ± 0.85 | 1377.4 ± 2.1 | 1002.7 ± 0.84 | 1361.8 ± 2.1 | 998.659 ± 0.84 | 1346.2 ± 2.1 | 994.587 ± 0.83 | speed of sound (313.15 K): 1440 ± 2.1 m/s; mass density (313.15 K): 1018.59 ± 0.88 kg/m3
3 | Cc1ccccc1O [2-methylphenol] | 1522.6 ± 1.3 | 1045.77 ± 0.27 | 1505.5 ± 1.3 | 1041.41 ± 0.26 | 1488.2 ± 1.3 | 1037.05 ± 0.26 | 1470.2 ± 1.3 | 1032.64 ± 0.26 | 1435.2 ± 1.3 | 1023.83 ± 0.25 | 1417.7 ± 1.3 | 1019.39 ± 0.24 | 1400.2 ± 1.2 | 1014.93 ± 0.24 | 1382.8 ± 1.2 | 1010.46 ± 0.24 | 1365.3 ± 1.2 | 1005.97 ± 0.23 | 1347.7 ± 1.2 | 1001.46 ± 0.23 | speed of sound (313.15 K): 1452.7 ± 1.3 m/s; mass density (313.15 K): 1028.25 ± 0.25 kg/m3
4 | Oc1ccccc1 [phenol] |  |  |  |  |  |  |  |  | 1437.2 ± 1.3 | 1054.1 ± 0.27 | 1422.1 ± 1.3 | 1049.81 ± 0.27 | 1406.8 ± 1.2 | 1045.5 ± 0.27 | 1391.4 ± 1.2 | 1041.16 ± 0.26 | 1376.1 ± 1.2 | 1036.79 ± 0.26 | 1360.6 ± 1.2 | 1032.4 ± 0.26 | 
5 | COC(=O)c1ccccc1O [methyl 2-hydroxybenzoate] | 1429.1 ± 1.3 | 1184.33 ± 0.38 | 1410.6 ± 1.3 | 1179.34 ± 0.38 | 1392.3 ± 1.2 | 1174.35 ± 0.37 | 1374 ± 1.2 | 1169.37 ± 0.37 | 1338.1 ± 1.2 | 1159.4 ± 0.36 | 1320.4 ± 1.2 | 1154.42 ± 0.36 | 1302.8 ± 1.2 | 1149.45 ± 0.35 | 1285.4 ± 1.2 | 1144.46 ± 0.35 | 1268.1 ± 1.2 | 1139.47 ± 0.34 | 1250.9 ± 1.2 | 1134.49 ± 0.34 | speed of sound (288.15 K): 1447.6 ± 1.3 m/s; mass density (288.15 K): 1189.32 ± 0.39 kg/m3; speed of sound (313.15 K): 1356 ± 1.2 m/s; mass density (313.15 K): 1164.38 ± 0.36 kg/m3
6 | Cc1cccc(O)c1 [3-methylphenol] | 1497.9 ± 1.3 | 1033.84 ± 0.26 | 1481.9 ± 1.3 | 1029.91 ± 0.25 | 1466.2 ± 1.3 | 1025.96 ± 0.25 | 1450.5 ± 1.3 | 1021.99 ± 0.25 | 1419.5 ± 1.3 | 1013.99 ± 0.24 | 1403.9 ± 1.2 | 1009.97 ± 0.24 | 1388.4 ± 1.2 | 1005.91 ± 0.23 | 1372.9 ± 1.2 | 1001.84 ± 0.23 | 1357.3 ± 1.2 | 997.743 ± 0.23 | 1341.8 ± 1.2 | 993.626 ± 0.23 | speed of sound (313.15 K): 1435 ± 1.3 m/s; mass density (313.15 K): 1018 ± 0.24 kg/m3
7 | C=CCc1ccc(O)c(OC)c1 [2-hydroxy-5-allylanisole] | 1497 ± 1.3 | 1066.48 ± 0.28 | 1478.7 ± 1.3 | 1062.06 ± 0.28 | 1460.3 ± 1.3 | 1057.64 ± 0.28 | 1442.2 ± 1.3 | 1053.21 ± 0.27 | 1406.1 ± 1.2 | 1044.35 ± 0.27 | 1388.2 ± 1.2 | 1039.92 ± 0.26 | 1370.5 ± 1.2 | 1035.48 ± 0.26 | 1352.8 ± 1.2 | 1031.04 ± 0.25 | 1335.2 ± 1.2 | 1026.6 ± 0.25 | 1317.8 ± 1.2 | 1022.15 ± 0.25 | speed of sound (288.15 K): 1515.3 ± 1.3 m/s; mass density (288.15 K): 1070.9 ± 0.29 kg/m3; speed of sound (313.15 K): 1424.1 ± 1.3 m/s; mass density (313.15 K): 1048.78 ± 0.27 kg/m3
